As a reminder, the MIC is the lowest concentration that inhibits growth of the organism.

For 30 compounds, MIC results are on record in patent publication US20210246115A1 (Bioimics AB, priority 2017, published 2021).

Values after ≈ are worked out from the molar mass of the structure shown. Structures can show the parent of a compound that is named as a salt. Where two headings read alike, the source gives them in different places. Bounds are passed on as bounds.

Assay [1] concerns Staphylococcus aureus subsp. aureus (ATCC29213). The assay can be described thus: MIC, broth microdilution (CLSI), Staphylococcus aureus ATCC29213. It counts as cell-based. The settings on record: Staphylococcus aureus. A general note: Dilution methods test growth across graded concentrations, often in twofold steps.
Assay [2] relates to Escherichia coli (ATCC25922). The assay can be described thus: MIC, broth microdilution (CLSI), Escherichia coli. The following applies: Escherichia coli, ATCC25922, read-out: E. coli ATCC 25922 MIC, Table XIII.
[3] abbreviates: ATCC29213, Table XIII, read-out: S. aureus ATCC 29213 MIC.
Setting [4] is: ATCC29213, read-out: S. aureus ATCC 29213 MIC, Table XIII.

As for `Cc1cccc(C(CCNCCCN)c2cn(CC3CCCCC3)c3ccccc23)c1.Cl.Cl` (stereo not drawn) [Compound 346, N1-(3-(1-(cyclohexylmethyl)-1H-indol-3-yl)-3-(m-tolyl)propyl)propane-1,3-diamine hydrochloride salt], the MIC in assay [1] (setting [3]) and in assay [2] was 8 µg/mL throughout.

Regarding `Cl.Cl.NCCCNCCC(c1cn(C2CCCCC2)c2ccccc12)C1CC1` (stereo not drawn) [Compound 422, N1-(3-(1-cyclohexyl-1H-indol-3-yl)-3-cyclopropylpropyl) propane-1,3-diamine hydrochloride salt], the minimal inhibitory concentration (MIC) was determined as 32 µg/mL in assay [1] (setting [3]) and 16 µg/mL in assay [2].

On to `Cc1cccc(C(CCNCCN)c2cn(C3CCCCC3)c3ccccc23)c1.Cl.Cl` (stereo not drawn) [Compound 347, N1-(3-(1-cyclohexyl-1H-indol-3-yl)-3-(m-tolyl)propyl)ethane-1,2-diamine hydrochloride salt], for which the MIC in assay [1] (setting [3]) came out at 8 µg/mL; in assay [2], 16 µg/mL.

For the compound `Cc1cccc(C(CCN(C#N)C2CCC(NC(N)=O)CC2)c2cn(C3CCCCC3)c3ccccc23)c1` [Compound 361, 1-(((1S,4S)-4-(N-(3-(1-cyclohexyl-1H-indol-3-yl)-3-(m-tolyl)propyl)cyanamido)cyclohexyl)urea salt], the MIC in assay [1] (setting [3]) and in assay [2] was over 128 µg/mL each time.

As for `O=C(O)c1ccc2c(c1)c(CNCC1CCNCC1)cn2CC1CCCCC1` [Compound 305, 1-(cyclohexylmethyl)-3-(((piperidin-4-ylmethyl)amino)methyl)-1H-indole-5-carboxylic acid hydrochloride salt], the MIC in assay [1] (setting [4]) and in assay [2] was over 128 µg/mL throughout.

With `Cc1cccc(C(CCNCC(O)CN)c2cn(C3CCCCC3)c3ccccc23)c1` (stereo not drawn) [Compound 386, 1-amino-3-((3-(1-cyclohexyl-1H-indol-3-yl)-3-(m-tolyl)propyl)amino) propan-2-ol], the MIC in assay [1] (setting [3]) was 16 µg/mL (≈ 38.1 µM); in assay [2], 8 µg/mL (≈ 19.1 µM).

With `Cl.Cl.NCCCNCCC(c1ccncc1)c1cn(C2CCCCC2)c2ccccc12` (stereo not drawn) [Compound 339, N1-(3-(1-cyclohexyl-1H-indol-3-yl)-3-(pyridin-4-yl)propyl)propane-1,3-diamine hydrochloride salt], the MIC in assay [1] (setting [3]) worked out at 32 µg/mL; in assay [2], 128 µg/mL.

For the compound `COc1cccc(C(CCNC2CCC(N)CC2)c2cn(C3CCCCC3)c3ccc(C#N)cc23)c1` (stereo not drawn) [Compound 400, 3-(3-(((1s,4s)-4-aminocyclohexyl)amino)-1-(3-methoxyphenyl)propyl)-1-cyclohexyl-1H-indole-5-carbonitrile hydrochloride salt], the MIC in assay [1] (setting [4]) and in assay [2] was 16 µg/mL throughout.

In the case of `N[C@H]1CC[C@H](NCCC(c2ccncc2)c2cn(C3CC4CCC3C4)c3ccccc23)CC1` (stereo partly drawn) [Compound 336, (1R,4R)-N1-(3-(1-(bicyclo[2.2.1]heptan-2-yl)-1H-indol-3-yl)-3-(pyridin-4-yl)propyl)cyclohexane-1,4-diamine hydrochloride salt], the MIC in assay [1] (setting [4]) is 64 µg/mL; in assay [2], 128 µg/mL.

Regarding `Cc1ccccc1C(CCNCCCN)c1cn(C2CCCC2)c2ccccc12.Cl.Cl` (stereo not drawn) [Compound 342, N1-(3-(1-cyclopentyl-1H-indol-3-yl)-3-(o-tolyl)propyl)propane-1,3-diamine hydrochloride salt], the MIC was found to be 16 µg/mL in assay [1] (setting [3]) and 8 µg/mL in assay [2].

On to `Cc1cccc(C(CCNCCCN)c2cn(CC3CCNCC3)c3ccc(C#N)cc23)c1` (stereo not drawn) [Compound 327, 3-(3-((3-aminopropyl)amino)-1-(m-tolyl)propyl)-1-(piperidin-4-ylmethyl)-1H-indole-5-carbonitrile hydrochloride salt], for which the MIC is 32 µg/mL in assay [1] (setting [4]) and over 128 µg/mL in assay [2].

For `CC(=O)N1CCC(N(CCC(c2cccc(C)c2)c2cn(C3CCCCC3)c3ccccc23)C(C)=O)CC1` (stereo not drawn) [Compound 354, N-(1-acetylpiperidin-4-yl)-N-(3-(1-cyclohexyl-1H-indol-3-yl)-3-(m-tolyl)propyl)acetamide salt], the MIC in assay [1] (setting [3]) is 128 µg/mL; in assay [2], over 128 µg/mL.

As to `Cc1cccc(C(CCNCCCO)c2cn(C3CCCCC3)c3ccccc23)c1` (stereo not drawn) [Compound 366, 3-((3-(1-cyclohexyl-1H-indol-3-yl)-3-(m-tolyl)propyl)amino) propan-1-ol], the MIC in assay [1] (setting [3]) was 16 µg/mL (≈ 39.5 µM); in assay [2], over 128 µg/mL.

Consider `NC1CCC(NCCC(c2cccnc2)c2cn(C3CC4CCC3C4)c3ccccc23)CC1` (stereo not drawn) [Compound 324, N1-(3-(1-(bicyclo[2.2.1]heptan-2-yl)-1H-indol-3-yl)-3-(pyridin-3-yl)propyl)cyclohexane-1,4-diamine hydrochloride salt], for which the MIC came out at 32 µg/mL in assay [1] (setting [4]) and 64 µg/mL in assay [2].

Regarding `COc1cccc(C(CCNCCCN)c2cn(C3CCCCC3)c3ccc(C#N)cc23)c1` (stereo not drawn) [Compound 402, 3-(3-((3-aminopropyl)amino)-1-(3-methoxyphenyl)propyl)-1-cyclohexyl-1H-indole-5-carbonitrile hydrochloride salt], the MIC stood at 8 µg/mL in assay [1] (setting [4]) and 16 µg/mL in assay [2].

For `Cc1cccc(C(CCNCCCN)c2cn(CC3CCNCC3)c3ccccc23)c1` (stereo not drawn) [Compound 314, N1-(3-(1-(piperidin-4-ylmethyl)-1H-indol-3-yl)-3-(m-tolyl)propyl)propane-1,3-diamine hydrochloride salt], the figures for the MIC in assay [1] (setting [4]) and in assay [2] were 16 µg/mL and over 128 µg/mL, respectively.

For `NC1CCC(NCCC(c2cccnc2)c2cn(CC3CCCCC3)c3ccccc23)CC1` (stereo not drawn) [Compound 319, N1-(3-(1-(cyclohexylmethyl)-1H-indol-3-yl)-3-(pyridin-3-yl)propyl) cyclohexane-1,4-diamine hydrochloride salt], the MIC in assay [1] (setting [4]) was 32 µg/mL; in assay [2] it was 64 µg/mL.

For `Cc1cccc(C(CCOC2OC(CO)C(O)C(O)C2O)c2cn(C3CCCCC3)c3ccccc23)c1` (stereo not drawn) [Compound 388, 2-(3-(1-cyclohexyl-1H-indol-3-yl)-3-(m-tolyl)propoxy)-6-(hydroxymethyl) tetrahydro-2H-pyran-3,4,5-triol], the MIC in assay [1] (setting [3]) is 16 µg/mL (≈ 31.4 µM); in assay [2], over 128 µg/mL.

In the case of `Cl.Cl.NCCCNCCC(c1cccnc1)c1cn(C2CC3CCC2C3)c2ccccc12` (stereo not drawn) [Compound 328, N1-(3-(1-(bicyclo[2.2.1]heptan-2-yl)-1H-indol-3-yl)-3-(pyridin-3-yl)propyl)propane-1,3-diamine hydrochloride salt], the MIC was found to be 32 µg/mL in assay [1] (setting [3]) and 64 µg/mL in assay [2].

`Cl.Cl.NCCCNCCC(c1cccnc1)c1cn(CC2CCCCC2)c2ccccc12` (stereo not drawn) [Compound 321, N1-(3-(1-(cyclohexylmethyl)-1H-indol-3-yl)-3-(pyridin-3-yl)propyl)propane-1,3-diamine hydrochloride salt]: the MIC in assay [1] (setting [3]) worked out at 32 µg/mL; in assay [2], 64 µg/mL.

Consider `Cl.Cl.NCCCNCCCc1cn(C2CCCCC2)c2ccc(Br)cc12` [Compound 359, N1-(3-(5-bromo-1-cyclohexyl-1H-indol-3-yl)propyl)propane-1,3-diamine hydrochloride salt], for which the MIC in assay [1] (setting [3]) and in assay [2] was 16 µg/mL in each case.

Regarding `Cl.Cl.c1ccc2c(c1)c(C(CCNC1CCNCC1)c1ccncc1)cn2C1CC2CCC1C2` (stereo not drawn) [Compound 337, N-(3-(1-(bicyclo[2.2.1]heptan-2-yl)-1H-indol-3-yl)-3-(pyridin-4-yl)propyl)piperidin-4-amine hydrochloride salt], the MIC in assay [1] (setting [3]) worked out at 32 µg/mL; in assay [2], 64 µg/mL.

On to `Cc1cccc(C(CCNC2CCNCC2)c2cn(CC3CCNCC3)c3ccccc23)c1` (stereo not drawn) [Compound 315, N-(3-(1-(piperidin-4-ylmethyl)-1H-indol-3-yl)-3-(m-tolyl)propyl) piperichn-4-amine hydrochloride salt], for which the MIC in assay [1] (setting [4]) was 64 µg/mL; in assay [2], over 128 µg/mL.

Regarding `COc1cccc(C(CCNC2CCNCC2)c2cn(C3CCCCC3)c3ccc(C#N)cc23)c1` (stereo not drawn) [Compound 401, 1-cyclohexyl-3-(1-(3-methoxyphenyl)-3-(piperidin-4-ylamino)propyl)-1H-indole-5-carbonitrile hydrochloride salt], the MIC in assay [1] (setting [4]) and in assay [2] was 16 µg/mL throughout.

Turning to `CN(Cc1cn(CC2CCCCC2)c2ccccc12)CC1CCNCC1` [Compound 301, 1-(1-(cyclohexylmethyl)-1H-indol-3-yl)-N-methyl-N-(piperidin-4-ylmethyl)methanamine hydrochloride salt], the MIC in assay [1] (setting [4]) and in assay [2] was 128 µg/mL each time.

For the compound `Cc1cccc(C(CCNCC2CNCCO2)c2cn(C3CCCCC3)c3ccc(Br)cc23)c1` (stereo not drawn) [Compound 405, 3-(5-bromo-1-cyclohexyl-1H-indol-3-yl)-N-(morpholin-2-ylmethyl)-3-(m-tolyl)propan-1-amine hydrochloride salt], the MIC in assay [1] (setting [4]) is 8 µg/mL; in assay [2] it was 16 µg/mL.

Turning to `Cc1cccc(C(CCN)c2cn(C3CCCCC3)c3ccccc23)c1.Cl` (stereo not drawn) [Compound 352, 3-(1-cyclohexyl-1H-indol-3-yl)-3-(m-tolyl)propan-1-amine hydrochloride salt], the MIC in assay [1] (setting [3]) was 8 µg/mL; in assay [2], over 128 µg/mL.

`Cl.Cl.NCCCNCCC(c1cncc2ccccc12)c1cn(C2CCCCC2)c2ccccc12` (stereo not drawn) [Compound 369, N1-(3-(1-cyclohexyl-1H-indol-3-yl)-3-(isoquinolin-4-yl)propyl)propane-1,3-diamine hydrochloride]: the MIC in assay [1] (setting [3]) and in assay [2] was 8 µg/mL each time.

Turning to `Cc1cccc(C(CCNC2CCNCC2)c2cn(C3CCNCC3)c3ccccc23)c1` (stereo not drawn) [Compound 317, N-(3-(1-(piperidin-4-yl)-1H-indol-3-yl)-3-(m-tolyl)propyl)piperidin-4-amine hydrochloride salt], the MIC is 64 µg/mL in assay [1] (setting [4]) and over 128 µg/mL in assay [2].

`COC(=O)c1ccc2c(c1)c(CNCC1CCNCC1)cn2CC1CCCCC1` [Compound 304, methyl 1-(cyclohexylmethyl)-3-(((piperidin-4-ylmethyl)amino)methyl)-1H-indole-5-carboxylate hydrochloride salt]: the MIC was 64 µg/mL in assay [1] (setting [4]) and over 128 µg/mL in assay [2].
